Converted amounts (≈) assume the structure as drawn. Read-outs that look alike come from different tables or passages of the source.
Columns and labels:
E. cloacae Nek39 = test: in vitro antibacterial activity, agar plate dilution method (MIC); format: cell-based; conditions: Enterobacter cloacae, read-out: Minimum inhibitory concentration (MIC)
Method: (§1) One platinum loopful of each test microorganism incubated overnight in Mueller Hinton broth, was inoculated to Mueller Hinton agar (inoculum size: 10^6 CFU/ml). Such culture media contained antibacterial agents in various concentrations. After incubation at 37° C. for 16 hours, the minimum inhibitory concentrations (MIC: μg/ml) were measured.

S. aureus MB4970 = test: as above; format: cell-based; conditions: Staphylococcus aureus, read-out: Minimum inhibitory concentration (MIC)
Method: as §1

Ps. aeruginosa MB5000 = test: as above; format: cell-based; conditions: Pseudomonas aeruginosa, read-out: Minimum inhibitory concentration (MIC)
Method: as §1

[1] = test system: renal dehydropeptidase I (DHP-I); format: in vitro ADME
Source text: The DHP-I susceptivity was quantitatively analyzed by the method by Kropp et al., Antimicrob., Agents Chemother., vol. 22, p. 62-70 (1982), whereby the smaller the numerical value representing the ratio to imipenem (=1.0), the higher the stability.

DHP-I [2] = conditions: cited from earlier work
[3] = test system: imipenem resistant Pseudomonas aeruginosa; conditions: cited from earlier work
[4] = test system: highly methicillin resistant Staphylococcus aureus resistant to imipenem; conditions: cited from earlier work
[5] = due to the decomposition products; cited from earlier work
[6] = cited from earlier work
[7] = test system: gram positive bacteria and gram negative bacteria; conditions: cited prior art; cited from earlier work
β-lactamase = conditions: cited from earlier work
DHP-I [8] = conditions: cited from earlier work; remark: listed apart in the source
[9] = test system: methicillin resistant Staphylococcus aureus; conditions: prior art compounds; cited from earlier work
[10] = in vivo; cited from earlier work

C[C@@H](O)[C@H]1C(=O)N2C(C(=O)[O-])=C(S[C@@H]3CN[C@H](/C=C/C(N)=O)C3)[C@H](C)[C@H]12.[K+]
MIC (E. cloacae Nek39; NEK39, 16 h): 0.025 µg/mL | MIC (S. aureus MB4970; MB4970, 16 h): 0.025 µg/mL | MIC (Ps. aeruginosa MB5000; MB5000, 16 h): 0.39 µg/mL | DHP-I susceptivity [1]: 0.2

C[C@@H](O)[C@H]1C(=O)N2C(C(=O)O)=C(S[C@@H]3CN[C@H](/C=C4\CCNC4=O)C3)[C@H](C)[C@H]12 [Example 12, (1R,5S,6S)-6-[(R)-1-Hydroxyethyl]-1-methyl-2-[(2S,4S)-2[(E)-(2-oxopyrrolidin-3-ylidene)methyl]pyrrolidin-4-ylthio]-1-carbapen-2-em-3-carboxylic acid]
MIC (E. cloacae Nek39; E. cloacae Nek39, Mueller Hinton agar, inoculum 10^6 CFU/ml, 37° C., 16 hours): 0.025 µg/mL (≈ 0.0614 µM) | MIC (S. aureus MB4970; S. aureus MB4970, Mueller Hinton agar, inoculum 10^6 CFU/ml, 37° C., 16 hours): 0.025 µg/mL (≈ 0.0614 µM) | MIC (Ps. aeruginosa MB5000; Ps. aeruginosa MB5000, Mueller Hinton agar, inoculum 10^6 CFU/ml, 37° C., 16 hours): 0.39 µg/mL (≈ 0.957 µM) | DHP-I susceptivity [1]: 0.04

C[C@@H](O)[C@H]1C(=O)N2C(C(=O)O)=C(SCCN=CN)C[C@H]12 [Imipenem, imipenem]
decomposition by DHP-I in the human kidney (DHP-I [2]): likely to be decomposed by DHP-I in the human kidney | treating effect (in words) [3]: does not show adequate treating effects | treating effect (in words) [4]: does not show adequate treating effects | toxicity against the kidney [5]: presents toxicity against the kidney due to the decomposition products | stability in the solid form or in an aqueous solution ([6]; compared with thienamycin): remarkably improved over thienamycin | antibacterial activities (in words) [7]: antibacterial activities of an equal or higher level than thienamycin against various types of bacteria | β-lactamase resistance (β-lactamase): has β-lactamase resistance | DHP-I susceptivity [1]: 1.0

C[C@@H](O)[C@H]1C(=O)N2C(C(=O)O)=C(S[C@@H]3CN[C@H](C(=O)N(C)C)C3)[C@H](C)[C@H]12 [meropenem]
stability against DHP-I (in words) (DHP-I [8]; prior art compounds): substantially improved | antibacterial activity against highly methicillin resistant Staphylococcus aureus (in words) [9]: not adequate

C[C@@H](O)[C@H]1C(=O)N2C(C(=O)O)=C(SCCN)C[C@H]12 [thienamycin]
decomposition by DHP-I (in words) (DHP-I [8]; renal dehydropeptidase I, in vivo): likely to be decomposed by a certain enzyme in vivo such as renal dehydropeptidase I | chemical stability (in words) ([6]; cited prior art): chemically unstable | antibacterial activities (in words) [7]: strong antibacterial activities over a wide range against gram positive bacteria and gram negative bacteria | recovery rate in the urine [10]: low

— patent US5095013A, “2-(2-vinylpyrrolidinylthio)carbapenem derivatives” (Banyu Pharmaceutical Co., Ltd., priority 1989, dated 1992)
